Measurements published in US6737383B1, “Herbicidal oxadiazolidines” (priority 1999, dated 2004).

Columns and labels:
rice = test: Test B flood test rice; format: in vivo, Oryza sativa; settings: for Plant response rating, Rice (0 to 10 scale, 0 is no effect, 10 is complete control): Rate 62 g/ha, Pre-emergence
Experimental: At the same time, these crop and weed species were also treated with postemergence applications of test chemicals formulated in the same manner. Plants ranged in height from 2 to 18 cm (1- to 4-leaf stage) for postemergence treatments. Plant species in the flood test consisted of rice (Oryza sativa), smallflower flatsedge (Cyperus difformis), duck salad (Heteranthera limosa) and bamyardgrass (Echinochloa crus-galli) grown to the 2-leaf stage for testing. Treated plants and controls were maintained in a greenhouse for twelve to sixteen days, after which all species were compared to controls and visually evaluated. Plant response ratings, summarized in Table B, are based on a scale of 0 to 10 where 0 is no effect and 10 is complete control. A dash (−) response means no test result.

smallflower flatsedge = test: Test B flood test smallflower flatsedge; format: in vivo, Cyperus difformis; settings: for Plant response rating, S. Flatsedge (0 to 10 scale, 0 is no effect, 10 is complete control): Rate 62 g/ha, Pre-emergence
Method in brief: (§1)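 Each value is a visual injury score relative to controls, with 10 meaning complete control and 0 no effect. Evaluation took place twelve to sixteen days after the 2-leaf-stage plants were treated and kept in the greenhouse.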

duck salad = test: Test B flood test duck salad; format: in vivo, Heteranthera limosa; settings: for Plant response rating, Ducksalad (0 to 10 scale, 0 is no effect, 10 is complete control): Rate 62 g/ha, Pre-emergence
Method in brief: as §1

bamyardgrass = test: Test B flood test barnyardgrass; format: in vivo, Echinochloa crus-galli; settings: for Plant response rating, Barnyardgrass (0 to 10 scale, 0 is no effect, 10 is complete control): Rate 62 g/ha, Pre-emergence
Method in brief: as §1

[1] = flood test species, visual evaluation after twelve to sixteen days
[2] = Rate 125 g/ha, under heading Pre-emergence, flood test species, visual evaluation after twelve to sixteen days
[3] = Rate 250 g/ha, Pre-emergence (flood test species), scale 0 to 10, 0 is no effect, 10 is complete control
[4] = Rate 500 g/ha, Pre-emergence section of Table B, 0 to 10 scale (0 no effect, 10 complete control)
[5] = Rate 125 g/ha, Pre-emergence section (flood test species), scale 0 to 10, 0 no effect, 10 complete control

SMILES | Plant response rating, Rice (0 to 10 scale, 0 is no effect, 10 is complete control) (rice; [1]) | Rice plant response rating (0 to 10 scale, 0 is no effect, 10 is complete control) (rice; [2]) | Rice plant response rating (rice; [3]) | Rice plant response rating (rice; [4]) | Plant response rating, S. Flatsedge (0 to 10 scale, 0 is no effect, 10 is complete control) (smallflower flatsedge; [1]) | S. Flatsedge plant response rating (0 to 10 scale, 0 is no effect, 10 is complete control) (smallflower flatsedge; [2]) | S. Flatsedge plant response rating (smallflower flatsedge; [3]) | S. Flatsedge plant response rating (smallflower flatsedge; [4]) | Plant response rating, Ducksalad (0 to 10 scale, 0 is no effect, 10 is complete control) (duck salad; [1]) | Ducksalad plant response rating (0 to 10 scale, 0 is no effect, 10 is complete control) (duck salad; [2]) | Ducksalad plant response rating (duck salad; [3]) | Ducksalad plant response rating (duck salad; [4]) | Plant response rating, Barnyardgrass (0 to 10 scale, 0 is no effect, 10 is complete control) (bamyardgrass; [1]) | Barnyardgrass plant response rating (0 to 10 scale, 0 is no effect, 10 is complete control) (bamyardgrass; [2]) | Barnyardgrass plant response rating (bamyardgrass; [3]) | Barnyardgrass plant response rating (bamyardgrass; [4]) | Rice plant response rating (rice; [5]) | S. Flatsedge plant response rating (smallflower flatsedge; [5]) | Ducksalad plant response rating (duck salad; [5]) | Barnyardgrass plant response rating (bamyardgrass; [5])
CC(C)N(C(=O)n1oc(=O)n(CC2CC2)c1=O)c1ccc(Cl)cc1 [Compound 539] | 0 | 0 | 0 | 0 | 0 | 0 | 0 | 0 | 0 | 0 | 0 | 0 | 0 | 0 | 0 | 0 |  |  |  | 
CC(C)N(C(=O)n1oc(=O)n(C(C)C(=O)N2CCOCC2)c1=O)c1ccc(F)cc1 (centres unmarked) [Compound 705] | 0 |  | 2 | 2 | 0 |  | 0 | 0 | 0 |  | 0 | 0 | 0 |  | 2 | 2 | 1 | 0 | 0 | 0
